In brackets after ≈: the same amount, converted by molar mass. Entries after “also recorded” stand apart in the source; their conditions may differ. Where two headings read alike, the source gives them in different places.
How the values were obtained:
M. hiemalis DSM 2656 = assay: MIC against fungi (antimicrobial assay); type: cell-based, Mucor hiemalis; settings: for MIC: Mucor hiemalis, DSM2656, DSM 2656, – = no activity observed under test conditions; for MIC M. hiemalis: supplement CSV, decimal comma, unit not given, in µg/mL
Protocol: (§1) The antimicrobial activities of compounds 1–7 (Acp A–G) were assessed against different bacterial and fungal strains in addition to their cytotoxic effects on two mammalian cell lines. The tested microorganisms comprised a diverse array of clinically relevant pathogens, encompassing sensitive indicator strains. Among the Gram-positive bacteria were Bacillus subtilis, Staphylococcus aureus, and Mycolicibacterium smegmatis. Gram-negative bacteria included Acinetobacter baumannii, Chromobacterium violaceum, Escherichia coli, and Pseudomonas aeruginosa. Additionally, filamentous fungi such as Mucor hiemalis and yeasts including Candida albicans, Wickerhamomyces anomalus, Rhodotorula glutinis, and Schizosaccharomyces pombe were included. Generally, all compounds presented similar biological properties, summarized in weak or no activity against fungal pathogens as well as weak to moderate inhibition of Gram-positive bacteria (Table 2).
(§2) The antimicrobial and cytotoxic assays were performed according to the methods reported previously.[57]

L929 (ACC 2) = assay: Cytotoxicity against mammalian cell lines; type: cell-based; settings: Mus musculus
Protocol: as §1, §2

KB-3-1 (ACC 158) = assay: Cytotoxicity against mammalian cell lines; type: cell-based; settings: Homo sapiens
Protocol: as §1, §2

B. subtilis DSM 10 = assay: MIC against bacteria (antimicrobial assay); type: cell-based, Bacillus subtilis; settings: for MIC: Bacillus subtilis, DSM10, DSM 10, – = no activity observed under test conditions; for MIC B. subtilis: supplement CSV, decimal comma, unit not given, in µg/mL
Protocol: as §1, §2

[1] = test system: preformed biofilms of S. aureus DSM 1104; assay: Disruption of preformed biofilms, crystal violet assay; type: cell-based, Staphylococcus aureus
Protocol: Therefore, Acp A–G were evaluated against preformed biofilms of S. aureus using crystal violet staining.[47]
Cultures of S. aureus DSM 1104 were prepared by inoculating 1 mL aliquots from a frozen stock (−20 °C) into 25 mL of CASO medium and incubating them overnight at 37 °C with shaking at 130 rpm.
The crystal violet assay was performed according to a previously reported procedure.[47] Arcopilins A–G were tested in serial dilutions (250–2 μg/mL), with methanol and microporenic acid A (MAA) as negative and positive controls, respectively. Statistical differences between samples and the controls were determined using a two-tailed Student’s t test, with statistical significance defined as p < 0.01. Statistical analysis was carried out using GraphPad Prism 9 (GraphPad Software, San Diego, CA).[58]

S. aureus DSM 346 = assay: MIC against bacteria (antimicrobial assay); type: cell-based, Staphylococcus aureus; settings: for MIC: Staphylococcus aureus, DSM346, DSM 346, – = no activity observed under test conditions; for MIC S. aureus: supplement CSV, decimal comma, unit not given, in µg/mL
Protocol: as §1, §2

S. aureus = settings: cited from earlier work
[2] = test system: methicillin-resistant S. aureus (MRSA); settings: cited from earlier work
two mammalian cell lines = assay: Cytotoxic effects on two mammalian cell lines (summary); type: cell-based; settings: KB-3-1 and L929
Protocol: as §1, §2

[3] = test system: different bacterial and fungal strains; assay: Antimicrobial activities against bacterial and fungal strains (whole panel); type: cell-based; settings: whole panel of bacteria and fungi
Protocol: as §1, §2

M. smegmatis ATCC 700084 = assay: MIC against bacteria (antimicrobial assay); type: cell-based, Mycolicibacterium smegmatis
Protocol: as §1, §2

human cancer cell lines = settings: cited from earlier work
[4] = test system: planktonic cells of S. aureus DSM 1104; assay: Checkerboard broth dilution assay (FICI); type: cell-based, Staphylococcus aureus
Excerpt: After assessing the effects of Acp A on the pathogen S. aureus, we delved deeper into the interaction of Acp A with established antibiotics (GM and Vac). This exploration focused on both planktonic cells and preformed biofilms of S. aureus. Consequently, we used a checkerboard assay to determine the fractional inhibitory concentration index (FICI) for combinations involving Acp A, GM, or Vac based on both their MIC values in combination.[49]
The interaction between arcopilin A, vancomycin, and gentamicin against S. aureus DSM 1104 was evaluated using a checkerboard broth dilution method to determine the fractional inhibitory concentration indices (FICIs), calculated as FIC = MIC of drug A in combination/MIC of drug A alone + MIC of drug B in combination/MIC of drug B alone.[59] The FICIs were interpreted as synergistic (FICI ≤ 0.5). For this assay, a seed culture was prepared as previously described to inoculate fresh CASO with 4% glucose broth to match the turbidity of a 0.1 McFarland standard suspension. Then, 100 μL of bacterial suspension was distributed in 96-well nontissue microtiter plates (TPP nontissue culture ref no. 92197, Switzerland). Arcopilin A (7.8–2 μg/mL) and antibiotics (vancomycin and gentamicin: 31.3–0.016 μg/mL) were added in increasing concentrations in columns and rows, respectively. The experiments were conducted in duplicate.

[5] = test system: preformed biofilms of S. aureus DSM 1104; assay: CFU count analysis, synergistic effects on preformed biofilms; type: cell-based, Staphylococcus aureus; settings: Acp A 7.8–3.9 μg/mL, GM 7.8–2 μg/mL, Vac 15.6–3.9 μg/mL
Protocol: The seed culture of S. aureus DSM 1104 was prepared as previously described, and the OD600 was adjusted to match the turbidity of a 0.001 McFarland standard. Then, 150 μL of bacterial solution in CASO with 4% glucose broth was incubated in 96-well tissue plates (TPP tissue culture ref no. 92196, Switzerland) for 24 h at 150 rpm. […] Methanol (2.5%) was used as the solvent control. The plates were incubated for a further 24 h at 37 °C. Colony-forming unit (CFU) count analysis of arcopilin A, antibiotics (vancomycin and gentamicin), and their combinations was performed as previously described.[58] Cells were suspended in the well 50 times. Dilution series in 1 to 10 steps (20 μL in 200 μL) were prepared down to a final dilution level of 10^–6, and 100 μL of this last dilution was platted on LB agar plates using 3 mm small glass beads (5 to 10, Omnilab, Germany) to homogeneously spread the liquid. Individual colonies on agar plates were counted after incubation at 30 °C for 24 and 48 h.[60] Afterward, CFUs were calculated by considering the dilution factors. Error bars indicate the SD of duplicate with two repeats.

[6] = L929, ACC 2, – = no activity observed under test conditions, read-out: IC50 against mammalian cell lines, L929
[7] = KB 3-1, ACC 158, – = no activity observed under test conditions, read-out: IC50 against mammalian cell lines, KB-3-1

Molecule: C[C@H](C[C@@H](C)[C@H](C)OC=O)C[C@H](C)C(=O)C1=C(O)/C(=C/c2ccccc2)NC1=O [Acp C, Arcopilin C]
- MIC (M. hiemalis DSM 2656): 66.7 µg/mL (≈ 167 µM)
- MIC M. hiemalis (M. hiemalis DSM 2656): 66,7
- IC50 (L929 (ACC 2); [6]): 1400 ng/mL (≈ 3.5 µM)
- IC50 (KB-3-1 (ACC 158); [7]): 800 ng/mL (≈ 2 µM)
- MIC (B. subtilis DSM 10): 33.3 µg/mL (≈ 83.4 µM)
- MIC B. subtilis (B. subtilis DSM 10): 33,3
- efficacy toward preformed biofilms ([1]; at 3.9 μg/mL): 35–45%
- effectiveness in the dispersal of preformed biofilms ([1]; between 7.8 μg/mL and 250 μg/mL): approximately 50%
- disrupting effect on preformed biofilms (in words) ([1]; tested 250–2 μg/mL): most promising disrupting effects; also recorded: remarkable effectiveness
- MIC (S. aureus DSM 346): 33.3 µg/mL (≈ 83.4 µM)
- MIC S. aureus (S. aureus DSM 346): 33,3

Molecule: C/C=C(\C)[C@@H]1C(C)=C[C@]2(C)C[C@H](C)CC[C@H]2[C@@H]1C(=O)C1=C[C@](Cc2ccccc2)(OC)NC1=O [chaetolivacine B]
- antibacterial properties against S. aureus (S. aureus): moderate antibacterial properties
- antibacterial properties against MRSA [2]: moderate antibacterial properties

Molecule: C/C(=C\c1csc(C)n1)[C@@H]1C[C@@H]2O[C@]2(C)CCC[C@H](C)[C@H](O)[C@@H](C)C(=O)C(C)(C)[C@@H](O)CC(=O)O1 [Epothilone B, reference compound]
- IC50 (L929 (ACC 2); L929, read-out: IC50 against mammalian cell lines, L929): 0.086 ng/mL (≈ 0.000169 µM)
- IC50 (KB-3-1 (ACC 158); KB 3-1, read-out: IC50 against mammalian cell lines, KB-3-1): 0.0086 ng/mL (≈ 1.69e-05 µM)

Molecule: C[C@@H](C[C@H](C)C(=O)C1=C(O)/C(=C/c2ccccc2)NC1=O)C[C@](C)(O)C(=O)CO [Acp E, Arcopilin E]
- cytotoxic properties (in words) (two mammalian cell lines): weak or no cytotoxic effects
- antimicrobial activity (in words) [3]: did not exhibit any antimicrobial activity

Molecule: C[C@H](C[C@@H](C)[C@H](C)O)C[C@H](C)C(=O)C1=C(O)/C(=C/c2ccccc2)NC1=O [Acp B, Arcopilin B]
- cytotoxic properties (in words) (two mammalian cell lines): weak or no cytotoxic effects
- MIC (B. subtilis DSM 10): 66.7 µg/mL (≈ 180 µM)
- MIC B. subtilis (B. subtilis DSM 10): 66,7
- MIC (S. aureus DSM 346): 66.7 µg/mL (≈ 180 µM)
- MIC S. aureus (S. aureus DSM 346): 66,7

Molecule: CC[C@H](C)C[C@@H](C)C[C@H](C)C(=O)C1=C(O)/C(=C/c2ccccc2)NC1=O [Acp D, Arcopilin D]
- MIC (M. hiemalis DSM 2656): 66.7 µg/mL (≈ 188 µM)
- MIC M. hiemalis (M. hiemalis DSM 2656): 66,7
- IC50 (L929 (ACC 2); [6]): 1700 ng/mL (≈ 4.78 µM)
- IC50 (KB-3-1 (ACC 158); [7]): 800 ng/mL (≈ 2.25 µM)
- MIC (B. subtilis DSM 10): 4.2 µg/mL (≈ 11.8 µM)
- MIC B. subtilis (B. subtilis DSM 10): 4,2
- lowest concentration with significant dispersal effects [1]: 31.3 µg/mL
- MIC (M. smegmatis ATCC 700084; Mycolicibacterium smegmatis, ATCC700084, ATCC 700084, – = no activity observed under test conditions): 66.7 µg/mL (≈ 188 µM)
- MIC M. smegmatis (M. smegmatis ATCC 700084; supplement CSV, decimal comma, unit not given, in µg/mL): 66,7

Molecule: myceliothermophin E
- antitumor activity against a number of human cancer cell lines (human cancer cell lines): potent antitumor activity

Molecule: CC[C@H](C)[C@@H]1O[C@H](c2c(O)c(-c3ccccc3)cn(O)c2=O)[C@@H](C)C[C@@H]1C [Acp G, Arcopilin G]
- IC50 (L929 (ACC 2); [6]): 0.024 ng/mL (≈ 6.46e-05 µM)
- IC50 (KB-3-1 (ACC 158); [7]): 0.2 ng/mL (≈ 0.000538 µM)
- cytotoxic properties (in words) (two mammalian cell lines): most cytotoxic metabolite
- MIC (B. subtilis DSM 10): 8.3 µg/mL (≈ 22.3 µM)
- MIC B. subtilis (B. subtilis DSM 10): 8,3
- MIC (S. aureus DSM 346): 16.6 µg/mL (≈ 44.7 µM)
- MIC S. aureus (S. aureus DSM 346): 16,6

Molecule: C/C=C(\C)[C@H]1C(C)=C[C@@]2(C)C[C@@H](C)CC[C@@H]2[C@H]1C(=O)C1=C[C@@](CC(C)C)(OC)NC1=O [myceliothermophin C]
- antitumor activity against a number of human cancer cell lines (human cancer cell lines): potent antitumor activity

Molecule: C/C=C(\C)[C@H]1C(C)=C[C@@]2(C)C[C@@H](C)CC[C@@H]2[C@H]1C(=O)C1=C[C@](CC(C)C)(OC)NC1=O [myceliothermophin D]
- antitumor activity against a number of human cancer cell lines (human cancer cell lines): potent antitumor activity

Molecule: C[C@@H](C[C@H](C)C(=O)C1=C(O)/C(=C/c2ccccc2)NC1=O)C[C@](C)(O)[C@@H](O)C(=O)O [Acp F, Arcopilin F]
- cytotoxic properties (in words) (two mammalian cell lines): weak or no cytotoxic effects
- antimicrobial activity (in words) [3]: did not exhibit any antimicrobial activity

Molecule: CN(C)[C@@H]1C(O)=C(C(N)=O)C(=O)[C@@]2(O)C(O)=C3C(=O)c4c(O)cccc4[C@@](C)(O)[C@H]3[C@H](O)[C@@H]12 [Oxytetracycline, reference compound]
- MIC (B. subtilis DSM 10): 8.3 µg/mL (≈ 18 µM)

Molecule: CN[C@H](CC(C)C)C(=O)N[C@H]1C(=O)N[C@@H](CC(N)=O)C(=O)N[C@H]2C(=O)N[C@H]3C(=O)N[C@H](C(=O)N[C@H](C(=O)O)c4cc(O)cc(O)c4-c4cc3ccc4O)[C@H](O)c3ccc(c(Cl)c3)Oc3cc2cc(c3O[C@@H]2O[C@H](CO)[C@@H](O)[C@H](O)[C@H]2O[C@H]2C[C@](C)(N)[C@H](O)[C@H](C)O2)Oc2ccc(cc2Cl)[C@H]1O [Vac, vancomycin]
- increase of the potency of the antibiotic in combination with Acp A ([4]; Acp A 3.9 μg/mL, MIC alone versus in combination): ≤ 31 fold
- MIC ([4]; Staphylococcus aureus, DSM1104, read-out: MIC of each single compound (MICs)): 2 µg/mL
- MIC in combination (MICc), Acp A and Vac ([4]; combination of Acp A (3.9 μg/mL) with Vac): 0.065 µg/mL
- improvement in the inhibitory effects in combination with Acp A [5]: ~3 fold
